Our source for the IC50 and CC50 values is patent publication US20260137698A1, “CYCLIN-DEPENDENT KINASE 7 INHIBITORS” (JOINT STOCK COMPANY «BIOCAD», priority 2022, published 2026).

pIC50: −log10 of the molar value. Where two headings read alike, the source gives them in different places. A value given as a limit tells only on which side of the number the result lay.

One data set addresses CDK7/Cyclin H/MNAT1 (Homo sapiens, UniProt P50613). Description: Inhibition of CDK7/Cyclin H/MNAT1 kinase activity (ADP-Glo). The class given is biochemical. The procedure, abridged: (§1)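 Kinase preincubated with compound (11 points, 4-fold steps from 50 μM) for 10 minutes at 25° C. in kinase buffer A with DTT, then reacted 40-60 minutes at 25° C. with ATP and CDKtide, Histone H1 or PDKtide substrate. ADP formation read by ADP-Glo luminescence; IC50 from four-parameter fit.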
On the technique in general: ADP-Glo first removes unused ATP, then detects ADP through luciferase.

The next data set concerns the target CDK9/Cyclin K (Homo sapiens, UniProt P50750). Description: Inhibition of CDK9/Cyclin K kinase activity (ADP-Glo). The class given is biochemical. Put shortly: as §1
Data set [1] concerns MDA-MB-468 (triple negative breast cancer). As to the kind of experiment: Antiproliferative assay on MDA-MB-468 cells (AlamarBlue, 96 h). The format is cell-based. The note with it: Homo sapiens, mean value from several measurements. Background: Alamar Blue is a resazurin reagent that responds to reducing activity.
For data set [2], the system named is NCl-H82 (small cell lung cancer). Description: Antiproliferative assay on NCl-H82 cells (AlamarBlue, 120 h). The note with it: mean value from several measurements. The class given is cell-based.
The nature of data set [3]: General cytotoxicity on primary differentiated HepaRG cells (72 h). The format is cell-based. The note with it: human, general toxicity, mean value from several measurements. The procedure, abridged:
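Differentiated HepaRG cells, maintained a week in basal hepatic medium with maintenance/metabolism supplement, were plated at 25×10^3 cells/well overnight. Compounds (200 μM to 0.2 nM) were added for 72 h before viability readout.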

Setting [4] is: mean of multiple measurement series, ATP 10 μM, read-out: CDK7/Cyclin H/MNAT1 IC50.
Setting [5] is: mean value from several measurements, read-out: IC50 CDK7/Cyclin H/MNAT.
[6] abbreviates: mean of multiple measurement series, ATP 50 μM, read-out: CDK9/Cyclin K IC50.
[7] abbreviates: mean value from several measurements, read-out: IC50 CDK9/Cyclin K.

Sequence of CDK9/Cyclin K (P50750 whole entry): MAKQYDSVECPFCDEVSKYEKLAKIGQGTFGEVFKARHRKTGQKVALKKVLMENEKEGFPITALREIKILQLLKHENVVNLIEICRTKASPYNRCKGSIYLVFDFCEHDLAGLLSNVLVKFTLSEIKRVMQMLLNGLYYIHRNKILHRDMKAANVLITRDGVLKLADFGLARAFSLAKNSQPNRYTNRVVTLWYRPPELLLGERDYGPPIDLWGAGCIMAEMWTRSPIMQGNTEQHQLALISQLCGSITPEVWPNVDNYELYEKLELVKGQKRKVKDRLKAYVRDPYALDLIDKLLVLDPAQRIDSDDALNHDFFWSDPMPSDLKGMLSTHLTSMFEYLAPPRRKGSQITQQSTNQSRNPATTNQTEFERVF
Sequence of CDK9/Cyclin K (O75909 whole entry partner): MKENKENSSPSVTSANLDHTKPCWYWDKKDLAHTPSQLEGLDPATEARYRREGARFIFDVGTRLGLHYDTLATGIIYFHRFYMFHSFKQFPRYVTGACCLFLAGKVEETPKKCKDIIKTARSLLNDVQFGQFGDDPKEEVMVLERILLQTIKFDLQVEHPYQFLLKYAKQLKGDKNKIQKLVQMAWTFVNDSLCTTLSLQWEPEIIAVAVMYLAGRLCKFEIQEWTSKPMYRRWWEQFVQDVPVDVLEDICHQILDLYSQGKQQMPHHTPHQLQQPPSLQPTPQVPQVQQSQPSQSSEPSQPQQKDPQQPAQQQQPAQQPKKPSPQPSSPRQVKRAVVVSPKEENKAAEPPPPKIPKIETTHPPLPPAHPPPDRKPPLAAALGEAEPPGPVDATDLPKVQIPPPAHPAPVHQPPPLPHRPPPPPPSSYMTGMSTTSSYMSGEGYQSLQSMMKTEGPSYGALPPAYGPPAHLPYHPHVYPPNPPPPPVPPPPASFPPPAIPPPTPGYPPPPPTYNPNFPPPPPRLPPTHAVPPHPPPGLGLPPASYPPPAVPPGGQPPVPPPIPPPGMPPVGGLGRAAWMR
Sequence of CDK7/Cyclin H/MNAT1 (P50613 whole entry): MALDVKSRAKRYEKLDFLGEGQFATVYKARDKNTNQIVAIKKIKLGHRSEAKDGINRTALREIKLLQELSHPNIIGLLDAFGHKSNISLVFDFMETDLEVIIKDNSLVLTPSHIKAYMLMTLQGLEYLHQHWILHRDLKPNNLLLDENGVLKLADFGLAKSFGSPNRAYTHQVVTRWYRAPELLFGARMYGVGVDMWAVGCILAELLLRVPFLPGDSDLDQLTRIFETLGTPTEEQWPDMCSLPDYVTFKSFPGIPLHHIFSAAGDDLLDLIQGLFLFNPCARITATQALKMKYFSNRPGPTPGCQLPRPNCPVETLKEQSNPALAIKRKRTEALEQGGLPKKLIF
Sequence of CDK7/Cyclin H/MNAT1 (P51946 whole entry partner): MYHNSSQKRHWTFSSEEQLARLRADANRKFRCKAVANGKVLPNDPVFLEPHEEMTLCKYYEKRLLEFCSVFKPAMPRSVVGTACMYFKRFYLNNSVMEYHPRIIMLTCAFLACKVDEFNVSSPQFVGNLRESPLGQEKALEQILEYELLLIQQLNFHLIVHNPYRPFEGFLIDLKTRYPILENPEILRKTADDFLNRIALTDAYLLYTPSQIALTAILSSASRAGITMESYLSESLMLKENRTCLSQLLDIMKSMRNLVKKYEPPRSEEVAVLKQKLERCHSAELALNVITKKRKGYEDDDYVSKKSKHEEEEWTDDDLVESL
Sequence of CDK7/Cyclin H/MNAT1 (P51948 whole entry partner): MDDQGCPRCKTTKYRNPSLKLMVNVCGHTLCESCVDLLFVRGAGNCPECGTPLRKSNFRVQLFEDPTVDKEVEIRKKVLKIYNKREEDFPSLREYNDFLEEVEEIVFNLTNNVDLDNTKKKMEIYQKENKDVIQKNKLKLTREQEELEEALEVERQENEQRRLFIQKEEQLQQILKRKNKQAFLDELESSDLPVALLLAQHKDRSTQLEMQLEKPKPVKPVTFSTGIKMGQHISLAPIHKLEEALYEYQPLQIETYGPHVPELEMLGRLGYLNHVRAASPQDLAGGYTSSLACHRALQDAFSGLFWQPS

The term CC50 denotes the concentration that lowers cell viability or growth by half. Low readings indicate greater toxicity to the cells, high ones lower toxicity to the cells. Take `CC(C)N1CCCc2c(-c3nc(N[C@H]4CCC5(CC5)NC4)ncc3C(F)(F)F)c[nH]c2C1=O` [CDK7_1277, 3-(2-{[(6S)-4-azaspiro[2.5]octan-6-yl]amino}-5-(trifluoromethyl)py-rimidin-4-yl)-7-(propan-2-yl)-1H,4H,5H,6H,7H, 8H-pyrrolo[2,3-c]azepin-8-one]: the pIC50 on CDK7/Cyclin H/MNAT1 (setting [4]) was greater than 8.30; at CDK7/Cyclin H/MNAT1 (setting [5]), greater than 8.30; at CDK9/Cyclin K (setting [6]), 6.35; on CDK9/Cyclin K (setting [7]), less than 6.70; in data set [1], greater than 8.00; in data set [2] it was greater than 8.00. Moreover, the CC50 at 72 h in data set [3] is greater than 2000 nM.

For `Cn1cc(N2CCCc3c(-c4nc(N[C@H]5CCCNC5)ncc4C(F)(F)F)c[nH]c3C2=O)cn1` [CDK7_955, 7-(1-methyl-1H-pyrazol-4-yl)-3-(2-{[(3S)-piperidin-3-yl]amino}-5-(trifluoromethyl)py-rimidin-4-yl)-1H,4H,5H,6H,7H, 8H-pyrrolo[2,3-c]azepin-8-one], the pIC50 on CDK7/Cyclin H/MNAT1 (setting [5]) is 7.30 to 8.30; at CDK9/Cyclin K (setting [7]), less than 6.70; in data set [1] it was 6.00 to 7.00; in data set [2] it was less than 6.00. In addition, the CC50 at 72 h in data set [3] was greater than 2000 nM.

On to `O=C1c2[nH]cc(-c3nc(NC4CCCNC4)ncc3C(F)(F)F)c2CCCN1c1nccs1` (stereo not shown) [CDK7_1172], for which the pIC50 is greater than 8.30 on CDK7/Cyclin H/MNAT1 (setting [5]), less than 6.70 on CDK9/Cyclin K (setting [7]), 7.00 to 8.00 in data set [1] and 7.00 to 8.00 in data set [2]. In data set [3], this molecule displayed a CC50 at 72 h greater than 2000 nM.

`CC1(C)CC[C@H](Nc2ncc(C(F)(F)F)c(-c3c[nH]c4c3CCCN(CC3CC3)C4=O)n2)CN1` [CDK7_1227, 7-(cyclopropylmeth-yl)-3-(2-{[(3S)-6,6-dimethylpiperidin-3-yl]amino}-5-(trifluoromethyl)py-rimidin-4-yl)-1H,4H,5H,6H,7H, 8H-pyrrolo[2,3-c]azepin-8-one]: the pIC50 is greater than 8.30 at CDK7/Cyclin H/MNAT1 (setting [5]), less than 6.70 at CDK9/Cyclin K (setting [7]), 7.00 to 8.00 in data set [1] and 7.00 to 8.00 in data set [2]. In data set [3], this molecule yielded a CC50 at 72 h greater than 2000 nM.

In the case of `CCN1CCCc2c(-c3nc(N[C@H]4CCC(C)(C)NC4)ncc3C(F)(F)F)c[nH]c2C1=O` [CDK7_1259, 3-(2-{[(3S)-6,6-dimethylpiperidin-3-yl]amino}-5-(trifluoromethyl)py-rimidin-4-yl)-7-ethyl-1H,4H,5H,6H,7H, 8H-pyrrolo[2,3-c]azepin-8-one], the pIC50 at CDK7/Cyclin H/MNAT1 (setting [5]) is greater than 8.30; on CDK9/Cyclin K (setting [7]) it was less than 6.70; in data set [1], 7.00 to 8.00; in data set [2] it was 7.00 to 8.00. The molecule further displayed a CC50 at 72 h in data set [3] greater than 2000 nM.

Regarding `CN1CCCc2c(-c3nc(N[C@H]4CCC(C)(C)NC4)ncc3C(F)(F)F)c[nH]c2C1=O` [CDK7_1187, 3-(2-{[(3S)-6,6-dimethylpiperidin-3-yl]amino}-5-(trifluoromethyl)py-rimidin-4-yl)-7-methyl-1H,4H,5H,6H,7H, 8H-pyrrolo[2,3-c]azepin-8-one], the pIC50 on CDK7/Cyclin H/MNAT1 (setting [4]) was greater than 8.30; on CDK7/Cyclin H/MNAT1 (setting [5]), greater than 8.30; on CDK9/Cyclin K (setting [6]), 6.74; at CDK9/Cyclin K (setting [7]) it was less than 6.70; in data set [1] it was greater than 8.00; in data set [2], greater than 8.00. The molecule further had a CC50 at 72 h in data set [3] greater than 2000 nM.

For `O=C1c2[nH]cc(-c3nc(N[C@H]4CCCNC4)ncc3C(F)(F)F)c2CCCN1c1ccccn1` [CDK7_1176, 3-(2-{[(3S)-piperidin-3-yl]amino}-5-(trifluoromethyl)py-rimidin-4-yl)-7-(pyridin-2-yl)-1H,4H,5H,6H,7H, 8H-pyrrolo[2,3-c]azepin-8-one], the pIC50 at CDK7/Cyclin H/MNAT1 (setting [5]) is 7.30 to 8.30; in data set [1], 6.00 to 7.00. The same molecule had a CC50 at 72 h in data set [3] greater than 2000 nM.

For `CC1CCc2c(-c3nc(N[C@H]4CCCNC4)ncc3C(F)(F)F)c[nH]c2C(=O)N1C` (stereo partly drawn) [CDK7_1254, 6,7-dimethyl-3-(2-{[(3S)-piperidin-3-yl]amino}-5-(trifluoromethyl)py-rimidin-4-yl)-1H,4H,5H,6H,7H, 8H-pyrrolo[2,3-c]azepin-8-one], the pIC50 was greater than 8.30 at CDK7/Cyclin H/MNAT1 (setting [5]), less than 6.70 on CDK9/Cyclin K (setting [7]), 7.00 to 8.00 in data set [1] and 7.00 to 8.00 in data set [2]. Besides, in data set [3], the CC50 at 72 h is greater than 2000 nM.

As to `Cn1cc(-n2ccc3c(-c4nc(N[C@H]5CCCNC5)ncc4C(F)(F)F)c[nH]c3c2=O)cn1` [CDK7_959, 6-(1-methyl-1H-pyrazol-4-yl)-3-(2-{[(3S)-piperidin-3-yl]amino}-5-(trifluoromethyl)py-rimidin-4-yl)-1H,6H,7H-pyrrolo[2,3-c]pyridin-7-one], the pIC50 is greater than 8.30 at CDK7/Cyclin H/MNAT1 (setting [4]); greater than 8.30 on CDK7/Cyclin H/MNAT1 (setting [5]); 6.97 on CDK9/Cyclin K (setting [6]); 6.70 to 7.30 on CDK9/Cyclin K (setting [7]); greater than 8.00 in data set [1]; greater than 8.00 in data set [2]. Besides, in data set [3], the CC50 at 72 h was greater than 2000 nM.

As for `O=c1c2[nH]cc(-c3nc(N[C@H]4CCCNC4)ncc3C(F)(F)F)c2ccn1Cc1ccccc1` [CDK7_961, 6-benzyl-3-(2-{[(3S)-piperidin-3-yl]amino}-5-(trifluoromethyl)py-rimidin-4-yl)-1H,6H,7H-pyrrolo[2,3-c]pyridin-7-one], the pIC50 was greater than 8.30 on CDK7/Cyclin H/MNAT1 (setting [4]); greater than 8.30 at CDK7/Cyclin H/MNAT1 (setting [5]); 7.16 on CDK9/Cyclin K (setting [6]); 6.70 to 7.30 at CDK9/Cyclin K (setting [7]); greater than 8.00 in data set [1]; greater than 8.00 in data set [2]. Moreover, in data set [3], the CC50 at 72 h lay in the range of 100 to 500 nM.

Turning to `O=C1c2[nH]cc(-c3nc(N[C@H]4CCC5(CC5)NC4)ncc3C(F)(F)F)c2CCCN1C1CC1` [CDK7_1276, 3-(2-{[(6S)-4-azaspiro[2.5]octan-6-yl]amino}-5-(trifluoromethyl)py-rimidin-4-yl)-7-cyclopropyl-1H,4H,5H,6H,7H, 8H-pyrrolo[2,3-c]azepin-8-one], the pIC50 on CDK7/Cyclin H/MNAT1 (setting [4]) was greater than 8.30; on CDK7/Cyclin H/MNAT1 (setting [5]), greater than 8.30; at CDK9/Cyclin K (setting [6]), 6.53; at CDK9/Cyclin K (setting [7]), less than 6.70; in data set [1] it was greater than 8.00; in data set [2], greater than 8.00. This molecule also had a CC50 at 72 h in data set [3] greater than 2000 nM.

Take `Cn1cc(N2CCCc3c(-c4nc(N[C@H]5CCC(C)(C)NC5)ncc4C(F)(F)F)c[nH]c3C2=O)cn1` [CDK7_1122, 3-(2-{[(3S)-6,6-dimethylpiperidin-3-yl]amino}-5-(trifluoromethyl)py-rimidin-4-yl)-7-(1-methyl-1H-pyrazol-4-yl)-1H,4H,5H,6H,7H, 8H-pyrrolo[2,3-c]azepin-8-one]: the pIC50 at CDK7/Cyclin H/MNAT1 (setting [5]) was 7.30 to 8.30; on CDK9/Cyclin K (setting [7]), less than 6.70; in data set [1], 6.00 to 7.00. The molecule further showed a CC50 at 72 h in data set [3] greater than 2000 nM.

Turning to `CC1(C)CC[C@H](Nc2ncc(C(F)(F)F)c(-c3c[nH]c4c3CCCN(C3CC3)C4=O)n2)CN1` [CDK7_1225, 7-cyclopropyl-3-(2-{[(3S)-6,6-dimethylpiperidin-3-yl]amino}-5-(trifluoromethyl)py-rimidin-4-yl)-1H,4H,5H,6H,7H, 8H-pyrrolo[2,3-c]azepin-8-one], the pIC50 at CDK7/Cyclin H/MNAT1 (setting [4]) was greater than 8.30; on CDK7/Cyclin H/MNAT1 (setting [5]), greater than 8.30; at CDK9/Cyclin K (setting [6]), 6.36; at CDK9/Cyclin K (setting [7]) it was less than 6.70; in data set [1] it was 7.00 to 8.00; in data set [2], 7.00 to 8.00. Further, the CC50 at 72 h in data set [3] is greater than 2000 nM.

For the molecule `CC(C)N1CCCc2c(-c3nc(N[C@H]4CCC(C)(C)NC4)ncc3C(F)(F)F)c[nH]c2C1=O` [CDK7_1229, 3-(2-{[(3S)-6,6-dimethylpiperidin-3-yl]amino}-5-(trifluoromethyl)py-rimidin-4-yl)-7-(propan-2-yl)-1H,4H,5H,6H,7H, 8H-pyrrolo[2,3-c]azepin-8-one], the pIC50 on CDK7/Cyclin H/MNAT1 (setting [4]) was greater than 8.30; at CDK7/Cyclin H/MNAT1 (setting [5]), greater than 8.30; at CDK9/Cyclin K (setting [6]) it was 6.31; on CDK9/Cyclin K (setting [7]), less than 6.70; in data set [1], 7.00 to 8.00; in data set [2], 7.00 to 8.00. Moreover, in data set [3], the CC50 at 72 h was greater than 2000 nM.

In the case of `Cn1cc(-n2ccc3c(-c4nc(N[C@H]5CCC(C)(C)NC5)ncc4C(F)(F)F)c[nH]c3c2=O)cn1` [CDK7_1123, 3-(2-{[(3S)-6,6-dimethylpiperidin-3-yl]amino}-5-(trifluoromethyl)py-rimidin-4-yl)-6-(1-methyl-1H-pyrazol-4-yl)-1H,6H,7H-pyrrolo[2,3-c]pyridin-7-one], the pIC50 was greater than 8.30 on CDK7/Cyclin H/MNAT1 (setting [4]); greater than 8.30 on CDK7/Cyclin H/MNAT1 (setting [5]); 6.58 on CDK9/Cyclin K (setting [6]); less than 6.70 on CDK9/Cyclin K (setting [7]); greater than 8.00 in data set [1]; 7.00 to 8.00 in data set [2]. Moreover, the 50% cytotoxic concentration (CC50) at 72 h in data set [3] is greater than 2000 nM.

For `O=C1c2[nH]cc(-c3nc(NC4CCCNC4)ncc3C(F)(F)F)c2CCCN1C1CC1` (stereo not shown) [CDK7_1188], the pIC50 on CDK7/Cyclin H/MNAT1 (setting [5]) was greater than 8.30; on CDK9/Cyclin K (setting [7]), less than 6.70; in data set [1], greater than 8.00; in data set [2], greater than 8.00. In data set [3], the CC50 at 72 h is greater than 2000 nM.

Consider `CN1CCCc2c(-c3nc(N[C@H]4CCCNC4)ncc3C(F)(F)F)c[nH]c2C1=O` [CDK7_953, 7-methyl-3-(2-{[(3S)-piperidin-3-yl]amino}-5-(trifluoromethyl)py-rimidin-4-yl)-1H,4H,5H,6H,7H, 8H-pyrrolo[2,3-c]azepin-8-one], for which the pIC50 on CDK7/Cyclin H/MNAT1 (setting [4]) is greater than 8.30; at CDK7/Cyclin H/MNAT1 (setting [5]), greater than 8.30; on CDK9/Cyclin K (setting [6]) it was 7.22; at CDK9/Cyclin K (setting [7]) it was 6.70 to 7.30; in data set [1] it was greater than 8.00; in data set [2] it was greater than 8.00. Further, the CC50 at 72 h in data set [3] is 500 to 2000 nM.
